Measured values from ChEMBL document CHEMBL1201862, “PubChem BioAssay data set” (2004).
Calls of active or inactive are those of the source.

Tests used:
Caspase-3 = target: T1, Caspase-3 (Homo sapiens, UniProt P42574); assay type: functional;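 further: Dose-response selectivity test against caspase-3 for candidate inhibitors of sentrin-specific proteases (SENPs)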
T1 sequence (P42574 whole entry): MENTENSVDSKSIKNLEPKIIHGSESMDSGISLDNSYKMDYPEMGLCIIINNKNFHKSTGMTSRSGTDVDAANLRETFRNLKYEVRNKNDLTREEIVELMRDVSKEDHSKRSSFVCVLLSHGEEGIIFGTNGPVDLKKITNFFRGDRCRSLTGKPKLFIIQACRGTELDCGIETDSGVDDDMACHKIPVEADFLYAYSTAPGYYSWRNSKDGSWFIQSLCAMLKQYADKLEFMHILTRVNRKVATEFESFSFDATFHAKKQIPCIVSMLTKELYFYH

[1] = target: T2, Sentrin-specific protease 7 (Homo sapiens, UniProt Q9BQF6); assay type: functional;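 further: Luminescence-based dose-response confirmation of ultra-high-throughput screening hits, measuring inhibition of SENP7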
T2 sequence (Q9BQF6 whole entry): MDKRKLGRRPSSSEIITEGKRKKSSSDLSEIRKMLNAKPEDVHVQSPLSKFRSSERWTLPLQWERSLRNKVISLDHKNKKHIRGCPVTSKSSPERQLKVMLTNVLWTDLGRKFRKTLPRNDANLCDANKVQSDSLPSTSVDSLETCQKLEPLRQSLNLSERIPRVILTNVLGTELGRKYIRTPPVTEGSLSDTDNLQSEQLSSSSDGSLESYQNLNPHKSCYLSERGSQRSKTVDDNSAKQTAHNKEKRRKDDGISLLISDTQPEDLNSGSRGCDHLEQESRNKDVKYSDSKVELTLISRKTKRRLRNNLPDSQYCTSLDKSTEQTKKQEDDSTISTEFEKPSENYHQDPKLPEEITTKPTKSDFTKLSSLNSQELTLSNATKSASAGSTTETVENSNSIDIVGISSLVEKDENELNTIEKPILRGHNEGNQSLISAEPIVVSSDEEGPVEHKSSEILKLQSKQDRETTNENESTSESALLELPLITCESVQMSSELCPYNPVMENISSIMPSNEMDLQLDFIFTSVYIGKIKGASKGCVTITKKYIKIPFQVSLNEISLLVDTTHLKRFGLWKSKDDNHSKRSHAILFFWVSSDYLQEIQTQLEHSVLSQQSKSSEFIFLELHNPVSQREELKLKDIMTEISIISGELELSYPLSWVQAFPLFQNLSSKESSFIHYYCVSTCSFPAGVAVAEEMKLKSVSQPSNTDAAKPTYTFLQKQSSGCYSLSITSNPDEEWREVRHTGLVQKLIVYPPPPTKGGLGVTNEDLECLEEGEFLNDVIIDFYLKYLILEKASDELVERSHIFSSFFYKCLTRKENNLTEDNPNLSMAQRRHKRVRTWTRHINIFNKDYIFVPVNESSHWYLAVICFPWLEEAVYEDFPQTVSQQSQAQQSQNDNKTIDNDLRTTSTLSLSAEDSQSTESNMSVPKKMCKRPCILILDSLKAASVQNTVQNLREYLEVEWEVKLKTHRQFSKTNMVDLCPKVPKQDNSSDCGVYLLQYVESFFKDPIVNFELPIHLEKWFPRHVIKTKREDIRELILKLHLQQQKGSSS

[2] = target: T3, Sentrin-specific protease 6 (Homo sapiens, UniProt Q9GZR1); assay type: functional;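 further: Luminescence-based dose-response confirmatory assay of SENP6 inhibition, following up an ultra-high-throughput screen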
T3 sequence (Q9GZR1 whole entry): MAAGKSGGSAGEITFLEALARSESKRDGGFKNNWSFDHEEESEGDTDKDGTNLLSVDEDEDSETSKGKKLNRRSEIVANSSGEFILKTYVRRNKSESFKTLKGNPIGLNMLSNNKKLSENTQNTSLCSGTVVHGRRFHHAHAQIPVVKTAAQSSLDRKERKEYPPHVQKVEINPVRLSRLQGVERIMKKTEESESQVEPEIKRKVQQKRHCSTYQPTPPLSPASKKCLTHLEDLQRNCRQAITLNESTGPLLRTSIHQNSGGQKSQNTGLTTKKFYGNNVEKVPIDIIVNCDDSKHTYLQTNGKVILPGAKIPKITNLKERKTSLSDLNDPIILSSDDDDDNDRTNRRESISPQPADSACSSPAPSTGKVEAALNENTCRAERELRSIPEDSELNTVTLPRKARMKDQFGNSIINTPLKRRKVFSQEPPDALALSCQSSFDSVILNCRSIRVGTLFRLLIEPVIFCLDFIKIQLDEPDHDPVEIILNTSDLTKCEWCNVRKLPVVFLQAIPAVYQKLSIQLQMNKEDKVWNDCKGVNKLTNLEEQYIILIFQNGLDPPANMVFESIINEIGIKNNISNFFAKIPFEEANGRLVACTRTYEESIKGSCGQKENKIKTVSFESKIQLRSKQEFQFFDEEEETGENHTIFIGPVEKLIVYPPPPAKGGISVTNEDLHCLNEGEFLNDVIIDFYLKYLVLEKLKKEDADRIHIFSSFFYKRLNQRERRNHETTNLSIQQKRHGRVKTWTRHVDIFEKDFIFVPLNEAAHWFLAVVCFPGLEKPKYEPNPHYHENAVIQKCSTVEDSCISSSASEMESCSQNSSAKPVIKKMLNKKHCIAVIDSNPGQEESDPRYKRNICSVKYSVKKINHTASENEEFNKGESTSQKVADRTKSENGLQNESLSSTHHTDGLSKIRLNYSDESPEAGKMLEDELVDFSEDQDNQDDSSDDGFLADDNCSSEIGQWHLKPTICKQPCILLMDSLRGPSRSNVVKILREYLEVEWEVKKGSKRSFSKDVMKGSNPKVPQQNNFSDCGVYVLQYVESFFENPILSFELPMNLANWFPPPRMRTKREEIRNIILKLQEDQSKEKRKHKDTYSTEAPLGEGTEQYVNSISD

[3] = target: T4, Sentrin-specific protease 8 (Homo sapiens, UniProt Q96LD8); assay type: functional
T4 sequence (Q96LD8 whole entry): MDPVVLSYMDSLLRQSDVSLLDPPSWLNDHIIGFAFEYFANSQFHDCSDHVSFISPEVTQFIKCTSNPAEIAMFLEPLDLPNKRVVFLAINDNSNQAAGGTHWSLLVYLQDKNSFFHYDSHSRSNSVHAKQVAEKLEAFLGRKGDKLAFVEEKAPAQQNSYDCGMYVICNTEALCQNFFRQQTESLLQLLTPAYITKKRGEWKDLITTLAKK

[4] = target: T5, Mitochondrial peptide methionine sulfoxide reductase (Bos taurus, UniProt P54149); assay: Absorbance-based biochemical high throughput dose response assay for activators of Methionine sulfoxide reductase A (MsrA).; assay type: functional
T5 sequence (P54149 whole entry): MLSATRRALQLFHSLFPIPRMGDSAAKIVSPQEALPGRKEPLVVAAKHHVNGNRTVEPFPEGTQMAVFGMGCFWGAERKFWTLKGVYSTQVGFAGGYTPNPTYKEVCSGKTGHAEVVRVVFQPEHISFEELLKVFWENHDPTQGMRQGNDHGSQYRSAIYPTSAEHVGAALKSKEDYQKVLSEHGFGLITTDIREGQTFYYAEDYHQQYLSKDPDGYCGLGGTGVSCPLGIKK

[5] = target: T4, Sentrin-specific protease 8; assay type: functional; remark: listed apart in the source
[6] = target: Sphingosine 1-phosphate receptor 2 (Homo sapiens, UniProt O95136); assay: Dose Response Cell Based Assay for Antagonists of the S1P2 Receptor. [Related pubchem assays: 856, 736 ]; assay type: functional
Sequence of Sphingosine 1-phosphate receptor 2 (O95136 whole entry): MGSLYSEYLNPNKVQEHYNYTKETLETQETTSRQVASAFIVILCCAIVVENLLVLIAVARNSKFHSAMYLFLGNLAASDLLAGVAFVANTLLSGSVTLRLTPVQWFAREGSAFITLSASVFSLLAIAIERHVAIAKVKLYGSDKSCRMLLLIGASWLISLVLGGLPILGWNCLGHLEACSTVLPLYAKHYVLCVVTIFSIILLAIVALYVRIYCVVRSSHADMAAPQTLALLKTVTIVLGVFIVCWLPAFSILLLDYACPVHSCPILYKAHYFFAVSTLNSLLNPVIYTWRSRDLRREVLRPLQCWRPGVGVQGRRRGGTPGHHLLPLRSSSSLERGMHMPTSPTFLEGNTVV

[7] = target: T6, Heat shock factor protein 1 (Mus musculus, UniProt P38532); assay: inhibition of MG132-induced HSE-luciferase signal, confirmation, cell-based, NIH3T3, luminescence, dose retest (AID 2382); assay type: functional;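 further: NIH3T3 fibroblasts with HSF1-driven luciferase reporter stressed by proteasome inhibitor MG132; luminescence from HSF1-driven luciferase expression after 8 hours of MG132 stress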
T6 sequence (P38532 whole entry): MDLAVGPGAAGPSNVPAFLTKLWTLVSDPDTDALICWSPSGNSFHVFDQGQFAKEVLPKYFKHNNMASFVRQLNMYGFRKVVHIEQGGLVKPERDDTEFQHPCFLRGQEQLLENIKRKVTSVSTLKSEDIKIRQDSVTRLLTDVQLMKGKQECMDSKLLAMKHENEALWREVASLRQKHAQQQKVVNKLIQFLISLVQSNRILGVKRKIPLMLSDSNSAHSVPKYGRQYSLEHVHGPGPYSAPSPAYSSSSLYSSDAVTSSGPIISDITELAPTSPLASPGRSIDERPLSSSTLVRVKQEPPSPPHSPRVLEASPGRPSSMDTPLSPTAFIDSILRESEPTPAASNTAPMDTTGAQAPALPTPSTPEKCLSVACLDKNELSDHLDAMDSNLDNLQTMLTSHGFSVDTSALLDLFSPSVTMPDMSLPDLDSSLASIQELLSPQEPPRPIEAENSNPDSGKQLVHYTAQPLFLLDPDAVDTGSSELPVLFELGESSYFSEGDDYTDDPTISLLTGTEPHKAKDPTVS

[8] = target: T7, Microphthalmia-associated transcription factor (Homo sapiens, UniProt O75030); assay: TRPM1 promoter luciferase signal decrease, dose response, MITF inhibitor project, cell-based, SK-MEL-5, cherry-picked, set 3 (AID 493073); assay type: functional
T7 sequence (O75030 whole entry): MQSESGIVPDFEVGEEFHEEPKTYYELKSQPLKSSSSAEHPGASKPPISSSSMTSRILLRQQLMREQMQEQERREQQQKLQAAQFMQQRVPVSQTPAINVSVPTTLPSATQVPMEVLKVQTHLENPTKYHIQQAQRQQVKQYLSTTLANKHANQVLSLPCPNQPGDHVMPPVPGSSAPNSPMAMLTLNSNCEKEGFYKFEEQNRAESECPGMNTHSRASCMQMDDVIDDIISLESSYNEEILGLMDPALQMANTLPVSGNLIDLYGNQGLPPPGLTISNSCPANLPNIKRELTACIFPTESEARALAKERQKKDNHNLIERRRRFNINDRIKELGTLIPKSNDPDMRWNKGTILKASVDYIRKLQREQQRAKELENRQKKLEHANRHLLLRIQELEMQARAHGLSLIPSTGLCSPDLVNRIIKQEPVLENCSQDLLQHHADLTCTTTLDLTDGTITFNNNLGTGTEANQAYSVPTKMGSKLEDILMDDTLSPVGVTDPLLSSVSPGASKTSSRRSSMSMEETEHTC

[9] = target: Dual specificity tyrosine-phosphorylation-regulated kinase 1A (Rattus norvegicus, UniProt Q63470); assay type: biochemical, Homo sapiens
Interleukin-8 [10] = target: T8, Interleukin-8 (Homo sapiens, UniProt P10145); assay: Dose Response confirmation of uHTS small molecule hits for cystic fibrosis induced NFkb Inhibitors in a TNFa-induced IL8 counterscreen.; assay type: functional; conditions: read-out: IC50_Mean
T8 sequence (P10145 whole entry): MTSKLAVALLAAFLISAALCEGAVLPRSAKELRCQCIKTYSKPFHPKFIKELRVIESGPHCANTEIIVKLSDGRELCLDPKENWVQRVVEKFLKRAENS

Interleukin-8 [11] = target: T8, Interleukin-8; assay: Dose Response confirmation of uHTS small molecule hits for cystic fibrosis induced NFkb Inhibitors in a PAF-induced IL8 counterscreen.; assay type: functional; conditions: read-out: IC50_Mean
[12] = inhibitors of HIV Env-driven cell fusion, dose response, cherry-pick (AID 652057); assay type: functional, cell-based
[13] = CEM21 lymphoblast cell cytotoxicity, dose response, cytotoxicity control for viral fusion inhibitor project, CellTiter-Glo luminescence, cherry-picked (AID 652042); assay type: functional, cell-based;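 further: potency for signal decrease meaning cytotoxicity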
[14] = ZM109 Env clade C HIV-1 fusion inhibitors, dose response, HeLa effector, CEM target cells, luciferase, cherry-pick (AID 652058); assay type: functional, cell-based
[15] = off-target signal loss in HeLa-CEM21 co-culture – HeLa F-luc CTL cells, cherry-picked, counter-screen for HIV-1 Env fusion inhibitor project, dose response (AID 652040); assay type: functional, cell-based;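 further: potency for signal decrease marking cytotoxic or nonspecific inhibition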
[16] = inhibitors of clade B AD8 Env fusion, dose response, cell-based, cherry-pick (AID 652062); assay type: functional;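 further: luciferase signal from cell-cell fusion driven by HIV-1 clade B AD8 Env; potency is for inhibitors of fusion seen as a drop in luminescence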
Cytochrome P450 3A4 = Cytochrome P450 3A4 (Homo sapiens, UniProt P08684);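 further: CYP3A4 tested as one member of a cytochrome P450 panel screen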
Sequence of Cytochrome P450 3A4 (P08684 whole entry): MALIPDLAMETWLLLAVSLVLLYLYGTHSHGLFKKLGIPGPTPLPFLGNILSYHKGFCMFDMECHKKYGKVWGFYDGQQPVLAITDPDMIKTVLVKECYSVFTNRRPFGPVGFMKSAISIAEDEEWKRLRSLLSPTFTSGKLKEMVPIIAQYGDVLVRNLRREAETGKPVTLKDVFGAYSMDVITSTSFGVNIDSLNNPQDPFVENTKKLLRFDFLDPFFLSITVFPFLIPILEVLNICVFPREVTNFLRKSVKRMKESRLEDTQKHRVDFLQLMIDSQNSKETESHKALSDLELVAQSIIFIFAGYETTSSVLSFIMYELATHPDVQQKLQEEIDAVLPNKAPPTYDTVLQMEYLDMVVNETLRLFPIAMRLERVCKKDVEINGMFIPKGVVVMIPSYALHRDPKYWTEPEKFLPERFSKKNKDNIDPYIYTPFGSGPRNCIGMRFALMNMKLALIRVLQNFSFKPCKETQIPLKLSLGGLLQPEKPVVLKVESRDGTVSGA

[17] = THP-1 cell cytotoxicity, cytotoxicity control, set 4 (AID 504911); assay type: functional; conditions: Mycobacterium tuberculosis
[18] = AlphaScreen signal interference compounds, dose response, artefact control for ARNT-TACC3 interaction inhibitor project, biochemical, luminescence, cherry-pick (AID 651705); assay type: functional;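 further: AlphaScreen bead proximity signal that flags compounds interfering with the detection technology; potency reflects signal decrease which marks the compound as an assay artifact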
[19] = target: T5, Mitochondrial peptide methionine sulfoxide reductase; assay type: functional

**Q.** Which results are given for `O=C(OCC(=O)N1CCN(c2ccccc2)CC1)c1ccc([N+](=O)[O-])s1`?
**A.** IC50 (Caspase-3): 10.2 µM (active); IC50 [1]: 13.8 µM (active); IC50 [2]: 6.71 µM (active); IC50 [3]: 5.37 µM (active); EC50 [4]: 24.8 µM (inactive); IC50 [5]: 2.31 µM (active)

**Q.** Which IC50 [6] does the source give for `COc1cccc(-c2nnc3n2N=C(C(C)(C)C)CS3)c1` here?
**A.** Its IC50 is 3.31 µM (active).

**Q.** What about the EC50 [7] of the same molecule?
**A.** Its EC50 is 2.96 µM (active).

**Q.** And the AC50 [8]?
**A.** The AC50 was 4.82 µM (active).

**Q.** What about the AC50 [9] of the same molecule?
**A.** Its AC50 is 8.72 µM (active).

**Q.** And the IC50 (Interleukin-8 [10])?
**A.** Its IC50 is 42.4 µM (inactive).

**Q.** And the IC50 (Interleukin-8 [11])?
**A.** Its IC50 is 4.14 µM (active).

**Q.** What about the AC50 [12] of the same molecule?
**A.** The AC50 was 1.25 µM (active).

**Q.** What about the AC50 [13] of the same molecule?
**A.** The AC50 was 8.58 µM (active).

**Q.** What about the AC50 [14] of the same molecule?
**A.** The AC50 was 0.976 µM (active).

**Q.** And the AC50 [15]?
**A.** Its AC50 is 2.95 µM (active).

**Q.** What about the AC50 [16] of the same molecule?
**A.** The AC50 was 2.3 µM (active).

**Q.** And the AC50 (Cytochrome P450 3A4)?
**A.** Its AC50 is 25.1 µM (inconclusive).

**Q.** For `CCSc1nc(C)c(C)c(O)n1`, which CC50 [17] is on record?
**A.** The CC50 was > 100 µM (active).

**Q.** Which AC50 [18] does the source give for `O=C(CSc1cccc2cccnc12)Nc1ccccc1F` here?
**A.** Its AC50 is 90.5 µM (active).

**Q.** Which IC50 [19] does the source give for `O=[N+]([O-])c1cccc(/C=N/n2c(S)nnc2C2CCCCC2)c1` here?
**A.** The IC50 was 155 µM (inactive).
